In ChEMBL document CHEMBL1201862, “PubChem BioAssay data set” (2004):
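Step 1: Grow cells in 96-well plates. Step 2: Expose to compound for 48 hours at 5 concentrations. Step 3: Interpolate endpoints linearly; if unreached, use highest concentration. GI50 marks 50% less growth.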 Calls of active or inactive are those of the source. No stated cut-off is given here; in the data, active = GI50 up to about 1.1 µM and inactive = higher.

Columns and labels:
Assay in all cases: DTP human tumour cell line panel, 48 h
LOX IMVI = system: LOX IMVI
SK-MEL-2 = system: SK-MEL-2
SF-539 = system: SF-539
OVCAR-3 = system: OVCAR-3
KM12 = system: KM12
TK-10 = system: TK-10
SR = system: SR
NCI-H226 = system: NCI-H226
U-251 = system: U-251
SF-295 = system: SF-295
Malme-3M = system: Malme-3M
A549 = system: A549
NCI-H522 = system: NCI-H522
SK-MEL-5 = system: SK-MEL-5
HCC 2998 = system: HCC 2998
SNB-75 = system: SNB-75
SF-268 = system: SF-268
A498 = system: A498

Measured: GI50

O=S(=O)(c1ccc(I)cc1)N(c1ccccc1)S(=O)(=O)C(F)(F)C(F)(F)C(F)(F)C(F)(F)F
inactive: LOX IMVI 96.2 µM | SK-MEL-2 29.2 µM | SF-539 35.6 µM | OVCAR-3 22.6 µM | KM12 18.8 µM | TK-10 14.2 µM | SR 56.5 µM | NCI-H226 22.9 µM | U-251 75.2 µM | SF-295 24 µM | Malme-3M 18.6 µM | A549 31.5 µM | NCI-H522 28.2 µM

COc1cccc(CC2Cc3ccccc3CC(=O)N2)c1 (configuration not stated)
inactive: SK-MEL-5 20.6 µM | LOX IMVI 10.1 µM | SK-MEL-2 42.2 µM | SF-539 88.5 µM | OVCAR-3 20.4 µM | KM12 22 µM | TK-10 29.9 µM | SR > 100 µM | HCC 2998 72.1 µM | NCI-H226 20.8 µM | U-251 47.1 µM | SNB-75 > 100 µM | SF-295 34.9 µM | SF-268 46.2 µM | A549 34.1 µM

COc1ccc(CCn2nccc2C)cc1
inactive: SK-MEL-5 > 100 µM | LOX IMVI > 100 µM | SF-539 > 100 µM | OVCAR-3 > 100 µM | KM12 > 100 µM | TK-10 > 100 µM | SR > 100 µM | U-251 > 100 µM | SNB-75 50.7 µM | SF-295 > 100 µM | Malme-3M > 100 µM | SF-268 > 100 µM | A549 > 100 µM

CC(=O)Oc1ccccc1[C@H]1CC(=O)C[C@H](c2ccccc2OC(C)=O)C12C(=O)c1ccccc1C2=O
inactive: SK-MEL-5 22.4 µM | SK-MEL-2 23.5 µM | OVCAR-3 22.1 µM | KM12 59.6 µM | SR 79.4 µM | HCC 2998 25.5 µM | NCI-H226 27.6 µM | U-251 38.9 µM | A498 25.6 µM | SNB-75 17.9 µM | SF-295 22.6 µM | Malme-3M 40 µM | NCI-H522 26.7 µM

CCCCSCCC(N)P(=O)(O)O (configuration not stated)
inactive: SK-MEL-5 > 100 µM | LOX IMVI > 100 µM | SK-MEL-2 > 100 µM | OVCAR-3 > 100 µM | TK-10 > 100 µM | SR > 100 µM | HCC 2998 > 100 µM | NCI-H226 > 100 µM | U-251 > 100 µM | SNB-75 > 100 µM | SF-295 > 100 µM | A549 > 100 µM | NCI-H522 > 100 µM

O=C(O)Cc1ccc(N2N=C(c3ccccc3)CC2=O)cc1
inactive: SK-MEL-5 > 100 µM | SK-MEL-2 23.2 µM | OVCAR-3 > 100 µM | KM12 > 100 µM | TK-10 > 100 µM | SR > 100 µM | HCC 2998 > 100 µM | NCI-H226 > 100 µM | U-251 > 100 µM | A498 > 100 µM | SNB-75 > 100 µM | SF-295 > 100 µM | Malme-3M 18.6 µM | SF-268 > 100 µM | NCI-H522 > 100 µM
